Source: PubChem BioAssay (NCI)
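In this assay, cells in 96-well plates receive the compound at five concentrations for 48 hours. Endpoints are linearly interpolated between the surrounding concentrations. At the TGI there is no net growth.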

Legend:
Test in all cases: growth of human tumour cells (NCI), 48 h
HOP-18 NSCLC = system: HOP-18 NSCLC
HCT-15 colon = system: HCT-15 colon
COLO 205 colon = system: COLO 205 colon
KM20L2 colon = system: KM20L2 colon
SF-295 CNS = system: SF-295 CNS
MALME-3M melanoma = system: MALME-3M melanoma
SW-620 colon = system: SW-620 colon
MOLT-4 leukemia = system: MOLT-4 leukemia
SNB-78 CNS = system: SNB-78 CNS
UACC-62 melanoma = system: UACC-62 melanoma
SK-MEL-28 melanoma = system: SK-MEL-28 melanoma
M19-MEL melanoma = system: M19-MEL melanoma
SF-268 CNS = system: SF-268 CNS
SK-MEL-5 melanoma = system: SK-MEL-5 melanoma
SNB-19 CNS = system: SNB-19 CNS
LOX IMVI melanoma = system: LOX IMVI melanoma
HOP-62 NSCLC = system: HOP-62 NSCLC
IGROV1 ovarian = system: IGROV1 ovarian
HOP-92 NSCLC = system: HOP-92 NSCLC
K-562 leukemia = system: K-562 leukemia
SF-539 CNS = system: SF-539 CNS
HCC-2998 colon = system: HCC-2998 colon
RXF 393 renal = system: RXF 393 renal
NCI-H522 lung = system: NCI-H522 lung
XF 498 CNS = system: XF 498 CNS
KM12 colon = system: KM12 colon
UO-31 renal = system: UO-31 renal
M14 melanoma = system: M14 melanoma
NCI-H226 lung = system: NCI-H226 lung
RPMI-8226 leukemia = system: RPMI-8226 leukemia
OVCAR-5 ovarian = system: OVCAR-5 ovarian
HL-60(TB) leukemia = system: HL-60(TB) leukemia
UACC-257 melanoma = system: UACC-257 melanoma
HT29 colon = system: HT29 colon
TK-10 renal = system: TK-10 renal
EKVX NSCLC = system: EKVX NSCLC
SK-OV-3 ovarian = system: SK-OV-3 ovarian
SK-MEL-2 melanoma = system: SK-MEL-2 melanoma
SR leukemia = system: SR leukemia
OVCAR-4 ovarian = system: OVCAR-4 ovarian
DLD-1 colon = system: DLD-1 colon
OVCAR-8 ovarian = system: OVCAR-8 ovarian
SN12C renal = system: SN12C renal
SNB-75 CNS = system: SNB-75 CNS
DMS 273 small cell lung = system: DMS 273 small cell lung
A549 NSCLC = system: A549 NSCLC
U251 CNS = system: U251 CNS
CAKI-1 renal = system: CAKI-1 renal
CCRF-CEM leukemia = system: CCRF-CEM leukemia
786-0 renal = system: 786-0 renal
DMS 114 small cell lung = system: DMS 114 small cell lung
OVCAR-3 ovarian = system: OVCAR-3 ovarian
HCT-116 colon = system: HCT-116 colon
NCI-H23 lung = system: NCI-H23 lung

## C1OC1C1CO1 (centres undefined)
HOP-18 NSCLC
  TGI: > 100 µM
HCT-15 colon
  TGI: > 100 µM
COLO 205 colon
  TGI: > 100 µM
KM20L2 colon
  TGI: > 100 µM
SF-295 CNS
  TGI: > 100 µM
MALME-3M melanoma
  TGI: > 100 µM
SW-620 colon
  TGI: > 100 µM
MOLT-4 leukemia
  TGI: > 100 µM
SNB-78 CNS
  TGI: > 100 µM
UACC-62 melanoma
  TGI: > 100 µM
SK-MEL-28 melanoma
  TGI: > 100 µM
M19-MEL melanoma
  TGI: > 100 µM
SF-268 CNS
  TGI: > 100 µM
SK-MEL-5 melanoma
  TGI: > 100 µM
SNB-19 CNS
  TGI: > 100 µM
LOX IMVI melanoma
  TGI: > 100 µM
HOP-62 NSCLC
  TGI: > 100 µM
IGROV1 ovarian
  TGI: > 100 µM
HOP-92 NSCLC
  TGI: > 100 µM
K-562 leukemia
  TGI: > 100 µM
SF-539 CNS
  TGI: > 100 µM
HCC-2998 colon
  TGI: > 100 µM
RXF 393 renal
  TGI: > 100 µM
NCI-H522 lung
  TGI: > 100 µM
XF 498 CNS
  TGI: > 100 µM
KM12 colon
  TGI: > 100 µM
UO-31 renal
  TGI: > 100 µM
M14 melanoma
  TGI: > 100 µM
NCI-H226 lung
  TGI: > 100 µM
RPMI-8226 leukemia
  TGI: > 100 µM
OVCAR-5 ovarian
  TGI: > 100 µM
HL-60(TB) leukemia
  TGI: 64.2 µM
UACC-257 melanoma
  TGI: > 100 µM
HT29 colon
  TGI: > 100 µM
TK-10 renal
  TGI: > 100 µM
EKVX NSCLC
  TGI: > 100 µM
SK-OV-3 ovarian
  TGI: > 100 µM
SK-MEL-2 melanoma
  TGI: > 100 µM
SR leukemia
  TGI: > 100 µM
OVCAR-4 ovarian
  TGI: > 100 µM
DLD-1 colon
  TGI: > 100 µM
OVCAR-8 ovarian
  TGI: > 100 µM
SN12C renal
  TGI: > 100 µM
SNB-75 CNS
  TGI: > 100 µM
DMS 273 small cell lung
  TGI: > 100 µM
A549 NSCLC
  TGI: > 100 µM
U251 CNS
  TGI: > 100 µM
CAKI-1 renal
  TGI: > 100 µM
CCRF-CEM leukemia
  TGI: > 100 µM
786-0 renal
  TGI: > 100 µM
DMS 114 small cell lung
  TGI: > 100 µM
OVCAR-3 ovarian
  TGI: > 100 µM
HCT-116 colon
  TGI: > 100 µM
NCI-H23 lung
  TGI: > 100 µM
